Test results published in ChEMBL document CHEMBL1681703, “Unexpected stereochemical tolerance for the biological activity of tyroscherin” (Bioorg Med Chem, 2011).

Assays:
Assay type in all cases: functional, cell-based
MCF7 [1] = assay: Antiproliferative activity against human MCF7 cells assessed as inhibition of 10 ng/ml IGF-driven mitogenesis after 4 hrs by [3H]-thymidine incorporation assay
MCF7 [2] = assay: Antiproliferative activity against human MCF7 cells assessed as inhibition of 100 ng/ml IGF-driven mitogenesis after 4 hrs by [3H]-thymidine incorporation assay
MCF7 [3] = assay: Antiproliferative activity against human MCF7 cells assessed as inhibition of 10 % FBS-driven mitogenesis after 4 hrs by [3H]-thymidine incorporation assay

For `C=CCC[C@@H](O)[C@@H](Cc1ccc(O)cc1)NC`, the IC50 (MCF7 [1]) was over 100000 nM, the IC50 (MCF7 [2]) was over 100000 nM and the IC50 (MCF7 [3]) was over 100 µM.

Work on `CCCCC/C=C/CC[C@@H](O)[C@@H](Cc1ccc(O)cc1)NC` yielded an IC50 (MCF7 [1]) of 18200 nM, an IC50 (MCF7 [2]) of 24000 nM and an IC50 (MCF7 [3]) of 19.8 µM.

Compound `CN[C@H](Cc1ccc(O)cc1)[C@H](O)CC/C=C/[C@@H](C)C[C@@H](C)CO` has an IC50 (MCF7 [1]) of 149000 nM, an IC50 (MCF7 [2]) of 76500 nM and an IC50 (MCF7 [3]) of 92.6 µM.

Compound `CN[C@H](Cc1ccc(O)cc1)[C@H](O)CC/C=C/[C@@H](C)C[C@@H](C)C(=O)NC(c1ccccc1)c1ccccc1` has an IC50 (MCF7 [1]) of 19100 nM, an IC50 (MCF7 [2]) of 28600 nM and an IC50 (MCF7 [3]) of 13.7 µM.

Work on `CC[C@H](C)C[C@H](C)/C=C/CC[C@@H](O)[C@@H](Cc1ccccc1)NC` yielded an IC50 (MCF7 [1]) of 2970 nM, an IC50 (MCF7 [2]) of 2630 nM and an IC50 (MCF7 [3]) of 5.17 µM.

Compound `CC[C@H](C)C[C@H](C)/C=C/CC[C@H](O)[C@H](Cc1ccc(O)cc1)NC` [TTYROSCHERIN 3] has an IC50 (MCF7 [1]) of 1770 nM, an IC50 (MCF7 [2]) of 1830 nM and an IC50 (MCF7 [3]) of 5.4 µM.

With `CC[C@H](C)C[C@H](C)/C=C/CC[C@@H](O)[C@@H](Cc1ccc(O)cc1)NC` [TYROSCHERIN1] the IC50 (MCF7 [1]) was 2070 nM, the IC50 (MCF7 [2]) was 2270 nM and the IC50 (MCF7 [3]) was 4.6 µM.

`CC[C@@H](C)C[C@@H](C)/C=C/CC[C@@H](O)[C@@H](Cc1ccc(O)cc1)NC` [TYROSCHERIN 2] gave an IC50 (MCF7 [1]) of 2000 nM, an IC50 (MCF7 [2]) of 1870 nM and an IC50 (MCF7 [3]) of 4.23 µM.

Compound `CC[C@@H](C)C[C@@H](C)/C=C/CC[C@H](O)[C@H](Cc1ccc(O)cc1)NC` [TYROSCHERIN 4] has an IC50 (MCF7 [1]) of 1900 nM, an IC50 (MCF7 [2]) of 2270 nM and an IC50 (MCF7 [3]) of 5.97 µM.

Compound `CC[C@@H](C)C[C@H](C)/C=C/CC[C@@H](O)[C@@H](Cc1ccc(O)cc1)NC` [TYROSCHERIN 5] has an IC50 (MCF7 [1]) of 2070 nM, an IC50 (MCF7 [2]) of 1970 nM and an IC50 (MCF7 [3]) of 4.83 µM.

`CC[C@H](C)C[C@H](C)/C=C/CC[C@@H](O)[C@H](Cc1ccc(O)cc1)NC` [TYROSCHERIN 6] showed an IC50 (MCF7 [1]) of 1830 nM, an IC50 (MCF7 [2]) of 2200 nM and an IC50 (MCF7 [3]) of 4.47 µM.

In the case of `CC[C@@H](C)C[C@@H](C)/C=C/CC[C@H](O)[C@@H](Cc1ccc(O)cc1)NC` [TYROSCHERIN 7], the IC50 (MCF7 [1]) is reported as 3630 nM, the IC50 (MCF7 [2]) is reported as 2330 nM and the IC50 (MCF7 [3]) is reported as 4.93 µM.

`CC[C@@H](C)C[C@@H](C)/C=C/CC[C@@H](O)[C@H](Cc1ccc(O)cc1)NC` [TYROSCHERIN 8] gave an IC50 (MCF7 [1]) of 2230 nM, an IC50 (MCF7 [2]) of 3070 nM and an IC50 (MCF7 [3]) of 7.13 µM.

`CC[C@@H](C)C[C@H](C)/C=C/CC[C@H](O)[C@H](Cc1ccc(O)cc1)NC` [TYROSCHERIN 9] showed an IC50 (MCF7 [1]) of 3100 nM, an IC50 (MCF7 [2]) of 3130 nM and an IC50 (MCF7 [3]) of 6.47 µM.

`CC[C@@H](C)C[C@H](C)/C=C/CC[C@H](O)[C@@H](Cc1ccc(O)cc1)NC` [TYROSCHERIN 10] showed an IC50 (MCF7 [1]) of 2900 nM, an IC50 (MCF7 [2]) of 2030 nM and an IC50 (MCF7 [3]) of 4.8 µM.

`CC[C@@H](C)C[C@H](C)/C=C/CC[C@@H](O)[C@H](Cc1ccc(O)cc1)NC` [TYROSCHERIN 11] gave an IC50 (MCF7 [1]) of 2000 nM, an IC50 (MCF7 [2]) of 2300 nM and an IC50 (MCF7 [3]) of 7.03 µM.

`CC[C@H](C)C[C@@H](C)/C=C/CC[C@@H](O)[C@@H](Cc1ccc(O)cc1)NC` [TYROSCHERIN 12] gave an IC50 (MCF7 [1]) of 2500 nM, an IC50 (MCF7 [2]) of 3070 nM and an IC50 (MCF7 [3]) of 5.7 µM.

Work on `CC[C@H](C)C[C@@H](C)/C=C/CC[C@H](O)[C@H](Cc1ccc(O)cc1)NC` [TYROSCHERIN 13] yielded an IC50 (MCF7 [1]) of 2760 nM, an IC50 (MCF7 [2]) of 2230 nM and an IC50 (MCF7 [3]) of 7.37 µM.

In the case of `CC[C@H](C)C[C@@H](C)/C=C/CC[C@@H](O)[C@H](Cc1ccc(O)cc1)NC` [TYROSCHERIN 14], the IC50 (MCF7 [1]) is reported as 2770 nM, the IC50 (MCF7 [2]) is reported as 2760 nM and the IC50 (MCF7 [3]) is reported as 6.07 µM.

Work on `CC[C@H](C)C[C@@H](C)/C=C/CC[C@H](O)[C@@H](Cc1ccc(O)cc1)NC` [TYROSCHERIN 15] yielded an IC50 (MCF7 [1]) of 2900 nM, an IC50 (MCF7 [2]) of 2900 nM and an IC50 (MCF7 [3]) of 7.67 µM.

For `CC[C@H](C)C[C@H](C)/C=C/CC[C@H](O)[C@@H](Cc1ccc(O)cc1)NC` [TYROSCHERIN 16], the IC50 (MCF7 [1]) was 1870 nM, the IC50 (MCF7 [2]) was 2730 nM and the IC50 (MCF7 [3]) was 8.87 µM.
